Reference: paper PMC11885506, “Evaluation of a non-animal toolbox informed by adverse outcome pathways for human inhalation safety” (Frontiers in Toxicology, 2025)
Entries after “also recorded” stand apart in the source; their conditions may differ. Where a name gives a salt, the structure may show the parent alone.

Legend:
[1] = test system: EpiAlveolar™ tissues; experiment: Cytokine and chemokine measurements (Luminex), EpiAlveolar model, Laboratory 2; assay type: cell-based, human; conditions: for MinPoD: EpiAlveolar™ model Laboratory-2
Excerpt: (§1) EpiAlveolar™ system was obtained from MatTek Corporation (Ashland, MA, United States, cat. no. ALV-100-FT-MAC, ALV-100-FT-MAC-PE12). According to the supplier, the tissue systems were derived from primary human alveolar epithelial cells and primary pulmonary fibroblasts, both from a same healthy donor, and pulmonary endothelial cells from another healthy donor, and THP-1 cell line derived macrophages. These tissues were differentiated by the manufacturer prior to shipping to the testing facilities. […] TEER was measured and only systems with confirmed quality of the tight junction barrier (>300 Ω.cm^2) and with approved morphological inspection were used in the experiments.
(§2) Vehicle control groups were also tested in parallel. Except for Doxorubicin (which underwent a 6-day chemical exposure + 6-day without exposure), exposures were conducted daily, on 12 consecutive days with different concentrations, through aerosol, apical or basolateral liquid exposure methods (Table 2). […] Each of the insert holders of the instrument base module was filled with Hanks’ Balanced Salt solution (HBSS) or PBS prior to placing the tissue inserts. Then, each test item solution/suspension was placed into the nebulizer reservoir for aerosol material exposure. The nebulizer was activated until the material solution/suspension was consumed and discharged into the main exposure chamber and allowed to fully gravity deposit out of the Cloud 12 (determined using a QCM). After exposure, the tissues were placed back into their multi-well culture plates containing the same medium, a further aliquot of media was added apically (20 µL for Akemi, 75 µL for all others except LPS) and returned to incubator until next exposure. Media used during the 6- or 12-day experimental period was prepared without Supplement X by MatTek. In medium exposure, the apical or basolateral liquid of each tissue was removed and replaced with each test item medium solution/suspension and returned to the incubator until the next exposure. After the beginning of the exposure cycles, tissues were only re-fed with new culture medium every 3-4 days.
In Laboratory 2, apical culture media samples of the tissues were collected, stored at −80°C until shipment, in dry ice with temperature monitor control, to Unilever SERS, where the analyses were performed. Upon receipt, samples were again stored in the −80°C until the analysis using Human Luminex® Discovery Assay kits (R&D Systems). The same readouts investigated for MucilAir™-HF tissue samples were quantified in these samples.

[2] = test system: EpiAlveolar™ model; experiment: Bioactivity exposure ratio (BER): lowest in vitro PoD of EpiAlveolar readouts / lower respiratory tract exposure estimate or Cmax; parameters: species or system human; conditions: Plasma
Procedure: (§4) Concentration and time-dependent changes in the bioactivity readout data were analyzed using a nonlinear state space model, based on the work of [Svensson and Schön (2017)]. […] All bioactivity readouts were included in the analysis (where available), i.e., measurements for tissue integrity loss (TEER) and functionality (MCC, CBF, and mucin secretion), cytokine/chemokine secretion, and the transcriptional LV values obtained using PLIER. The datasets were grouped so that a single state space model was used to capture all the responses (across time, concentration, and test material) for a single readout obtained within a particular study (laboratory/tissue model). Data were transformed to the log base 10 scale and normalized using z-scores, so that for a given readout Ytij from a laboratory/tissue model, the corresponding normalized value was given by y^tij=⁡log⁡10(Ytij)−μ)/σ . Here, the indexes i,j,t correspond to the different test materials, concentrations and timepoints, μ and σ are the sample mean and standard deviation of the control readout values obtained for the first timepoint. All measurement were then scaled so that the maximum median value across different replicates was one for all timepoints, readouts and test materials within a given laboratory/tissue model.
The model consists of state variables xti,j , response variables ytij and the concentrations of material c^i,j . The response variables yti,j represent the normalized (see below) readout values at timepoint t for material exposure i,j . The mean of the response variable is given by xti,j , so that yti,j∼xti,j+et , where et represents random fluctuations in the readout values, due to observational noise, which are taken to be normally distributed. Dynamical changes in state values are given by xti,j=fxt−1i,j,cti,j+vt . Here, fxt−1i,j,c^i,j is a non-linear function that represents interactions between different state variables and the perturbation caused by the test material at a given exposure at concentration c^i,j, and vt represents random fluctuations in state dynamics (which are also normally distributed). Following [Svensson and Schön (2017)], the nonlinear terms are based on an approximation to Gaussian processes, which are obtained using a basis function expansion-based approach. Inference of the model parameters was performed in the framework of Bayesian inference, wherein random draws of the posterior distribution were obtained using Sequential Monte Carlo (SMC), see [Svensson and Schön (2017)] and [Chopin and Papaspiliopoulos (2020)]. For each state space model representing a particular laboratory/readout dataset, SMC simulation was run for three chains at 5,000 iterations each, and first 1,000 iterations were discarded from the final posterior samples. The Rhat convergence diagnostic (Rhat < 1.1) was used to ensure the simulations had converged.
The state space model and posterior model parameter samples were then used to construct posterior predictive distributions of the response of each readout to a given test material for a given concentration and timepoint (see Figure 4). The posterior predictive distributions were used to estimate various statistics on the readout responses (median, 95% credible range etc.), PoDs, Concentration Dependency Scores (CDS) and two Effect Scores (increase and decrease). PoDs were defined as the concentration at which the mean response to a test material exceeded the 95% credible range of control for each timepoint (otherwise the mean response remains within the range of control). PoDs distribution for each timepoint, test material and readout, from which different statistical measures (e.g., the median, 95% credible range etc.) were calculated. The CDS was designed to provide confidence metric in whether an effect in the data was truly concentration dependent.

[3] = test system: EpiAlveolar™ tissues; experiment: High-throughput transcriptomics (RNA-seq, PLIER latent variables), EpiAlveolar model, Laboratory 2; assay type: cell-based, human; conditions: Transcriptomics, biomarker 30
[4] = test system: patients; parameters: method as in Budin et al., 2022; conditions: ref Budin et al., 2022; cited from earlier work
[5] = test system: EpiAlveolar™ tissues; experiment: Histology and immunohistochemistry, EpiAlveolar model, Laboratory 2; conditions: Laboratory 2, 12-day period
Procedure: To evaluate the quality of EpiAlveolar™ tissues over the 12-day experimental period, histological and immunohistochemistry assessments for detection of pan-cytokeratin, vimentin, aquaporin 5, pro-surfactant C, CD68, caspase-3, and/or αSMA were performed by Laboratories 1 and 2.
Tissues were kept in 10% phosphate buffered formalin at 4°C for up to 48 h. Samples were then fixed in 70% ethanol and two strips of membrane were trimmed from each sample, processed, and paraffin-embedded to be cut at 5 µm thick sections and mounted to glass slides. The slides were then dewaxed in xylene, hydrated using graded industrial methylated spirit (70-100%) and stained with H&E for light microscope analysis.
For immunohistochemistry analysis, tissue sections-containing microscope slides were obtained and processed using a Discovery Ultra Staining System (Roche), according to manufacturer’s instructions, except for anti-CD68 staining that was manually performed. The slides were incubated at 60°C for 8 min and then deparaffinized at 69°C for 24 min. After that, slides were incubated with inhibitor CM or peroxidase blocking solution (for anti-CD68 staining) for 8 min at room temperature. The slides were then incubated at room temperature with the following primary monoclonal antibodies, following manufacturer’s instructions: anti-α smooth muscle actin (αSMA) at 1:500 (Leica Microsystems Ltd), anti-CD68 at 1:3000 for macrophages (11192-T24, Sino Biological), anti-pro-surfactant C protein at 1:1000 (AB3786, Sigma-Aldrich), anti-caspase-3 at 1:10000 (AB4051, Abcam), anti-aquaporin 5 (31661, Invitrogen), anti-pan-cytokeratin for epithelial cells (760-2595, Roche), and anti-vimentin for mesenchymal cells (790-2917, Roche). […]
A board-certified pathologist evaluated the changes (epithelial thinning, separation/detachment areas, necrosis, collagen, and presence of apoptotic cells, myofibroblasts, and type II pneumocytes) using a semi-quantitative scoring system (Table 2).

[6] = test system: EpiAlveolar™ tissues; experiment: Cytokine and chemokine measurements (Luminex), EpiAlveolar model, Laboratory 1; assay type: cell-based, human; conditions: for MinPoD: EpiAlveolar™ model Laboratory-1, biomarker ICAM-1
Excerpt: as §1, §2
In Laboratory 1, basal media samples collected from the tissues were collected and stored at ≤ −60°C until analysis. For cytokine/chemokine measurements, 17-Plex, duplex and single-plex analyte detection panels were run on the samples using Human Luminex™ Multiplex Immunoassay kits (R&D Systems). The analytes quantified were TNF-α, IL-6, MMP-9, MMP-3, MMP-1, MMP-2, CXCL10, CCL2, IFN-γ, IL-1ra, CCL7, IL-1a, CCL26, CXCL9, VCAM-1, ICAM-1, and CXCL11 in a 17-plex assay; whereas IL-8 and Serpin E1 in a duplex assay and TGF-β1 in a single-plex assay.

[7] = cited from earlier work
[8] = test system: MucilAir™-HF tissues; experiment: Mucin secretion measurement (enzyme-linked lectin assay), MucilAir-HF model; assay type: cell-based, human
Excerpt: (§3) Tissues were handled as recommended by manufacturer’s instruction.
Mucin production was quantified using an enzyme-linked lectin assay, following a protocol previously published ([Rossner et al., 2019]).

[9] = test system: MucilAir™-HF model; experiment: Bioactivity exposure ratio (BER): lowest in vitro PoD of MucilAir-HF readouts / upper respiratory tract exposure estimate
Procedure: as §4
The model consists of state variables xti,j , response variables ytij and the concentrations of material c^i,j . The response variables yti,j represent the normalized (see below) readout values at timepoint t for material exposure i,j . The mean of the response variable is given by xti,j , so that yti,j∼xti,j+et , where et represents random fluctuations in the readout values, due to observational noise, which are taken to be normally distributed. Dynamical changes in state values are given by xti,j=fxt−1i,j,cti,j+vt . […] For each state space model representing a particular laboratory/readout dataset, SMC simulation was run for three chains at 5,000 iterations each, and first 1,000 iterations were discarded from the final posterior samples. […]

[10] = test system: MucilAir™-HF tissues; experiment: Mucin-5AC (Muc5AC) immunohistochemistry, goblet cells, MucilAir-HF model; assay type: cell-based, human; conditions: for Increase in cells expressing Muc5AC protein: 30 min/day
Procedure: as §3
The presence of goblet cells was assessed through immunohistochemistry analysis for mucin-5AC protein (Muc5AC) detection. IL-13 and cytomix were used as positive controls (see item 2.5.2 for additional details). On last day of experiment (day 12), cultures (n = 3 tissues/group) were rinsed in PBS and fixed by immersion in 4% formaldehyde for 20 min. Fixed tissues were embedded into paraffin, sectioned, and processed for staining on paraffin sections. The immunostaining of the sections was performed with the Benchmark automated platform (Ventana-Roche, Hoffmann-La Roche Ltd, Basel, Switzerland) and the Autostainer Link 48 (Agilent, Santa Clara, CA. United States) with the detection kit Ultraview DAB (DAB chromogeny, Hoffmann-La Roche Ltd). Sections were pre-treated using heat mediated antigen retrieval with sodium citrate buffer, pH 6, for 20 min. The section was then incubated with recombinant anti-mucin 5AC antibody (ab3649, Abcam) for 1 h at room temperature, followed by biotinylated secondary antibody (Dako) and HRP detection (HRP conjugated ABC system, Vector Laboratories), according to manufacturer’s instruction. The section was then counterstained with hematoxylin (Sigma-Aldrich) and mounted with DPX, a synthetic non-aqueous mounting medium for microscopy. Digital images of the slides were then acquired, and quantitative image analysis performed using Image Pro Plus 6.2 (Media Cybernetics) to quantify the goblet cells on a section. The whole images of stained sections were scanned, and an average 15 images/section were analysed. The results are the ratio between the mucin 5AC stained area and the total surface area of the epithelium on the section.

[11] = test system: primary human nasal epithelial cells; parameters: method as in Uchenna Agu et al., 1999; conditions: 10^-5 and 10^-3 M for 30-45 min; ref Uchenna Agu et al., 1999; cited from earlier work
[12] = test system: MucilAir™-HF tissues; experiment: Cytokine and chemokine measurements (Luminex), MucilAir-HF model; assay type: cell-based, human; conditions: MucilAir-HF, 30 min/day exposure
Procedure: as §3
Basolateral medium samples of the tissue cultures were collected and stored at −80°C until analysis. The following cytokines/chemokines were quantified using customized Human Luminex® Discovery Assay kits (R&D Systems): chemokine (C-C motif) ligand (CCL) 2, CCL7, CCL26, C-X-C motif chemokine ligand (CXCL) 10, CXCL11, intercellular adhesion molecule-1 (ICAM-1), IL-1α, IL-6, IL-8, matrix metalloproteinase (MMP)-1, MMP-2, MMP-3, MMP-7, MMP-9, osteopontin, interferon (IFN)-γ, IL-1 receptor antagonist (IL-1Ra), urokinase-type plasminogen activator receptor (uPAR), tumour necrosis factor (TNF)-α, urokinase (uPA), serpin E1, tissue inhibitor of metalloproteinase 1 (TIMP-1), and TGF-β1. Samples were measured in technical triplicates according to the manufacturer’s recommendation using a Luminex Bio-Plex® 200 RUO System ([…]).

[13] = test system: 16HBE14 o^− cells; conditions: cited from earlier work
[14] = test system: NCI-H292 cells; conditions: 1 µM for 48h; ref Matsuyama et al., 2018; cited from earlier work
[15] = 30 min/day exposure, day 12, High 1 concentration (third of the tested concentrations), average ± standard deviation
[16] = 30 min/day exposure, day 12, Low concentration (first of the tested concentrations), average ± standard deviation
[17] = 30 min/day exposure, day 12, Medium concentration (second of the tested concentrations), average ± standard deviation

## CCCCc1oc2ccccc2c1C(=O)c1cc(I)c(OCCN(CC)CC)c(I)c1 [Amiodarone, Amiodarone hydrochloride]
[1]; EpiAlveolar, Laboratory 2
  Cytokines/chemokines modulated (in words): upregulated levels of ICAM-1; also recorded: downregulated levels of MMP-1 and MMP-2
[1]; Day 4, biomarker MMP-1
  MinPoD: 6.9528 μg/cm2
[1]; Day 8, biomarker ICAM-1
  MinPoD: 5.203 μg/cm2
[1]; Day 12, biomarker ICAM-1
  MinPoD: 5.033 μg/cm2
[2]; Day 4, EpiAlveolar™ model Laboratory-2
  BER_min: 3.4764
[2]; Day 4, Transcriptomics
  BER_min: 0.004237
[2]; Day 8, EpiAlveolar™ model Laboratory-1
  BER_min: 0.6586
[2]; Day 8, EpiAlveolar™ model Laboratory-2
  BER_min: 2.602
[2]; Day 8, Transcriptomics
  BER_min: 0.004247
[2]; Day 12, EpiAlveolar™ model Laboratory-1
  BER_min: 0.4855
[2]; Day 12, EpiAlveolar™ model Laboratory-2
  BER_min: 2.516
[2]; Day 12, Transcriptomics
  BER_min: 0.004174
[3]; Day 4
  MinPoD: 0.008474 μg/cm2
[3]; Day 8
  MinPoD: 0.008494 μg/cm2
[3]; Day 12
  MinPoD: 0.00835 μg/cm2
[4]
  Patients developing Amiodarone-induced pulmonary fibrosis following typical Amiodarone pneumonitis: 5%–7%
[5]
  Histological changes compared to vehicle and control groups (in words): changes were not observed
[6]; EpiAlveolar, Laboratory 1
  Cytokines/chemokines modulated (in words): upregulated levels of ICAM-1
[6]; Day 8
  MinPoD: 1.317 μg/cm2
[6]; Day 12
  MinPoD: 0.971 μg/cm2
[7]; Scenario Plasma
  Risk: High
[7]; per benchmark chemical-exposure scenario (product and exposure scenario of the same line), based on historical safety decisions, ref References column of Table 3
  Risk classification: High

## O=c1ccc2ccccc2o1 [Coumarin]
[8]; Day 8, biomarker Mucins
  MinPoD: 6.056 μg/cm2
[8]; Day 12, biomarker Mucins
  MinPoD: 4.8708 μg/cm2
[9]; Scenario1, Day 8
  BER_min: 30691.6
[9]; Scenario1, Day 12
  BER_min: 24110.2
[10]; [15]
  % of Muc5AC area: 3.29 ± 0.36%
[10]; [16]
  % of Muc5AC area: 5.09 ± 0.57%
[10]; [17]
  % of Muc5AC area: 6.83 ± 1.07%
[10]; 6 h/day exposure, day 12, single tested concentration, average ± standard deviation
  % of Muc5AC area: 2.85 ± 0.43%

## CC(C)NCC(O)c1ccc(O)c(O)c1 (stereo not drawn) [Isoproterenol, Isoproterenol hydrochloride]
[11]
  CBF: maximally and irreversibly increased ciliary CBF
[10]; 50 μM
  Increase in cells expressing Muc5AC protein: 2.5 fold
[10]; 100 μM
  Increase in cells expressing Muc5AC protein: 3 fold
[10]; [15]
  % of Muc5AC area: 18.91 ± 3.09%
[10]; [16]
  % of Muc5AC area: 8.78 ± 1.62%
[10]; [17]
  % of Muc5AC area: 15.53 ± 1.41%
[12]
  Cytokines/chemokines modulated (in words): downregulation of MMP-7 only
[13]; 1-30 nM for 18h, 16HBE cells, ref Lindén, 1996
  IL-8 levels: IL-8 levels were also increased
[13]; 10-100 nM for 24h, ref Oehme et al., 2015
  IL-6 and IL-8 release: significant increase of IL-6 and IL-8 release
[14]
  MUC5AC mRNA expression: significant increase in MUC5AC mRNA expression

## IL-13: goblet cell hyper-, metaplasia agent used as positive control at 10 ng/mL
[10]; positive control IL-13 at 10 ng/mL
  Increase in cells expressing Muc5AC protein compared to unexposed tissues: 4 fold
[10]; positive controls via liquid basal exposure, 30 min/day column, day 12, average ± standard deviation
  % of Muc5AC area: 26.35 ± 3.34%
